Values quoted from earlier work as cited in US5830500A, “Low dose fluoxetine tablet” (Pentech Pharmaceuticals, Inc., priority 1996, dated 1998).

System: premature ejaculation
Conditions: reported

Structure (SMILES): CN(C)CCCN1c2ccccc2CCc2ccc(Cl)cc21 [clomipramine]
- side effects: weight gain, sedation, and anticholinergic effects
- success in managing premature ejaculation (informal use by a few practitioners): Some limited success
